Reference: patent publication US11122807B2, “Herbicidal mixtures comprising L-glufosinate or its salt and a second herbicide” (BASF SE, priority 2017, dated 2021)

Test system: LOLMU (Lolium multiflorum)
Test: Greenhouse post-emergence herbicidal test, scale 0 to 100, synergism by Colby's equation
Format: in vivo
Excerpt: Synergism can be described as an interaction where the combined effect of two or more compounds is greater than the sum of the individual effects of each of the compounds. The presence of a synergistic effect in terms of percent control, between two mixing partners (X and Y) can be calculated using the Colby equation (Colby, S. R., 1967, Calculating Synergistic and Antagonistic Responses in Herbicide Combinations, Weeds, 15, 21-22):
When the observed combined control effect is greater than the expected (calculated) combined control effect (E), then the combined effect is synergistic.
However, the weed control afforded by the compounds, mixtures or compositions is not limited to these species. The analysis of synergism or antagonism between the mixtures or compositions was determined using Colby's equation.
The culture containers used were plastic flowerpots containing loamy sand with approximately 3.0% of humus as the substrate. The seeds of the test plants were sown separately for each species and/or resistant biotype. For the pre-emergence treatment, the active ingredients, which had been suspended or emulsified in water, were applied directly after sowing by means of finely distributing nozzles. The containers were irrigated gently to promote germination and growth and subsequently covered with transparent plastic hoods until the plants had rooted. This cover caused uniform germination of the test plants, unless this had been impaired by the active ingredients. For the post-emergence treatment, the test plants were first grown to a height of 3 to 15 cm, depending on the plant habit, and only then treated with the active ingredients which had been suspended or emulsified in water. For this purpose, the test plants were either sown directly and grown in the same containers, or they were first grown separately as seedlings and transplanted into the test containers a few days prior to treatment. Depending on the species, the plants were kept at 10-25° C. or 20-35° C., respectively. The test period extended to 20 days after treatment. During this time, the plants were tended, and their response to the individual treatments was evaluated. The evaluation was carried out by using a scale from 0 to 100. 100 means no emergence of the plants or complete destruction of at least the above-ground parts, and 0 means no damage, or normal course of growth. Data shown are the mean of two replications.
L-Glufosinate: 5% EC formulation
Triaziflam: 5% EC formulation
Methiozolin: 250 g/l SC formulation

Question: For Cc1ccsc1C1=NOC(C)(COCc2c(F)cccc2F)C1 (stereo not drawn) [methiozoline, methiozolin], which “Herbicidal activity against LOLMU, Found” value (methiozoline alone 125 g ai/ha, scale 0-100, Example 2) is on record?
Answer: Its value is 0.

Question: What about the “Herbicidal activity against LOLMU, Found” value (methiozoline alone 250 g ai/ha, scale 0-100, Example 2) of the same molecule?
Answer: The value was 25.

Question: With CP(=O)(O)CC[C@H](N)C(=O)O [L-Glufosinate, (2S)-2-amino-4-[hydroxy(methyl)phosphinoyl]butyric acid] as the molecule, how does the “Herbicidal activity against LOLMU, Found” value (L-Glufosinate alone 75 g ai/ha, scale 0-100 (100 = complete destruction), Example 1) read?
Answer: The value was 0.

Question: What about the “Herbicidal activity against LOLMU, Found” value (L-Glufosinate alone 75 g ai/ha, scale 0-100, Example 2) of the same molecule?
Answer: Its value is 0.

Question: For Cc1cc(C)cc(OCC(C)Nc2nc(N)nc(C(C)(C)F)n2)c1 (stereo not drawn) [triaziflam], which “Herbicidal activity against LOLMU, Found” value (triaziflam alone 125 g ai/ha, scale 0-100, Example 1) is on record?
Answer: The value was 10.

Question: What about the “Herbicidal activity against LOLMU, Found” value (triaziflam alone 250 g ai/ha, scale 0-100, Example 1) of the same molecule?
Answer: The value was 55.
